The text below walks through data of patent US6462078B1, “Epoxyvibsanin B” (priority 2001, dated 2002).

Common to all, as to format: cell-based, human
Series [1] concerns THP-1 cells. The series can be described thus: Cytotoxicity assay (MTS) in THP-1 cells. As to the method:
(§1) Epoxyvibsanin B was also tested for cytotoxicity using a Cell Titer 96 Aqueous Non-radioactive kit (Promega, order no. G5421). Phenazine methosulfate (Sigma; catalog no. P 5812) was added as an electron donor to a cell culture containing PBMC (500,000 cells per well) and epoxyvibsanin B (final concentration of 1 μg/ml). 3-(4,5-Dimethylthiazole-2-yl)-5-(3-carbomethoxyphenyl)-2-(4-sulphophenyl)-2H-tetrazolium (MTS) was then added. Cells were incubated for 2 hours in a humidified 37° C., 7% CO2 incubator. The supernatant from the cell culture was harvested and its absorbance at 490 nm was recorded. Cell viability was determined based on the level of MTS (which reacted with mitochondria dehydrogenases enzymes in the living cells), as compared to that obtained from an epoxyvibsanin B-free control experiment. Epoxyvibsanin B was further tested for cytotoxicity toward THP-1 cells.

Series [2] has as its system IL-12 production. The series is described as follows: IL-12 inhibitory assay in PBMC stimulated with IFN-γ and LPS (IL-12 p70 sandwich ELISA). As for the experimental part: Mononuclear cells from human peripheral blood (PBMC) were harvested from a leukopak using standard procedures. The cells, diluted to three millions per mL, were maintained in RPMI medium supplemented with fetal calf serum (10%), penicillin (100 U/mL), streptomycin (100 μg/mL) and […] (2 mM). Human interferon gamma (IFN-γ, Boehringer Mannheim; catalog no. 1040596) was diluted to 60 units/mL using the cell-containing supplemented medium. 100 μL of the resulting cell culture was added to each well of a 96-well U-shaped bottom microtiter plate, and incubated overnight in a humidified 37° C., 7% CO2 incubator. Epoxyvibsanin B in 4×RPMI stock medium was added to each well with a final concentration of 1 μg/mL, followed by the addition of lipopolysaccharide (LPS, Serratia […] Sigma; catalog no. L-4766) in 4×RPMI stock medium with a final concentration of 1 μg/mL. The plate was gently vortexed and continuously incubated for 16 hrs. IFN-γ and LPS have stimulated PBMC for IL-12 production. The supernatant from each cell culture was harvested, and the secreted IL-12 p70 in the supernatant was quantitated with a sandwich ELISA using anti-human IL-12 antibodies (R & D systems; catalog no. mAb 611 and catalog no. BAF 219). An epoxyvibsanin B-free control experiment was also perfonned. […] The inhibition of IL-12 production was further tested in parallel experiments using two cell lines: PBMC and the human promonocytic leukemia mononuclear cells (THP-1 cells). As described above, PBMC were added to a 96-well plate with 500,000 cells per well, and stimulated for IL-12 production with IFN-γ (200 U/ml) and LPS (1 μg/ml). In parallel, THP-1 cells were added to a 96-well plate with 800,000 cells per well, and stimulated for IL-12 production with IFN-γ (2000 U/ml) and Staph Aureus Cowan I (0.05%, SAC or Pansorbin; from Calbiochem; lot no. B15921). The supernatant from each cell culture was harvested and analyzed for IL-12 p70 with a sandwich ELISA by using the antibodies indicated above. […]
(An ELISA detects its analyte on a solid surface through an enzyme-linked reagent.)

The subject of series [3] is PBMC. As to the method:
as §1

Series [4] concerns IL-12 production. The series can be described thus: IL-12 inhibitory assay in THP-1 cells stimulated with IFN-γ and SAC (IL-12 p70 sandwich ELISA). The settings on record: THP-1 800,000 cells per well, IFN-γ 2000 U/ml + SAC 0.05%; read-out: IC50, inhibition of IL-12 production. As for the experimental part: The inhibition of IL-12 production was further tested in parallel experiments using two cell lines: PBMC and the human promonocytic leukemia mononuclear cells (THP-1 cells). As described above, PBMC were added to a 96-well plate with 500,000 cells per well, and stimulated for IL-12 production with IFN-γ (200 U/ml) and LPS (1 μg/ml). In parallel, THP-1 cells were added to a 96-well plate with 800,000 cells per well, and stimulated for IL-12 production with IFN-γ (2000 U/ml) and Staph Aureus Cowan I (0.05%, SAC or Pansorbin; from Calbiochem; lot no. B15921). The supernatant from each cell culture was harvested and analyzed for IL-12 p70 with a sandwich ELISA by using the antibodies indicated above. […] The activity of epoxyvibsanin B in inhibiting IL-12 production is 10-fold that of a known anti-inflammatory compound, dexamethazone.

Usually CC50 stands for the concentration giving 50% cytotoxicity. High values mean better tolerance by the cells, low ones harm at low concentration. Broadly, the IC50 is the concentration needed to halve the response being measured.

Regarding epoxyvibsanin B, the CC50 in series [1] came to 10000 nM; in series [3], 5000 nM. Moreover, the IC50 was approximately 1 nM in series [2] (PBMC 500,000 cells per well, IFN-γ 200 U/ml + LPS 1 μg/ml, read-out: IC50, inhibition of IL-12 production) and 20 nM in series [4]. Besides, in series [2] (PBMC, IFN-γ 60 units/mL + LPS 1 μg/mL, compound 1 μg/mL, 16 hrs), the “inhibition of IL-12 production, as compared with control” value is on record as 90%. In series [2] (compared with dexamethazone, cell type not specified), the “activity in inhibiting IL-12 production relative to dexamethazone” value is on record as 10 fold. Further, the “cytotoxicity compared with dexamethazone” value in series [3] is listed as “lower than that of dexamethazone”.
